Consider three compounds from patent US20180050034A1, “ANTIFUNGAL TREATMENT OF CROHN'S DISEASE” (Gerbe Labs Inc., priority 2016, published 2018).

SMILES strings stand for the structures.

Common to all, as to type: cell-based
The test system of experiment [1] is Co-cultivation of A. fumigatus + C. albicans (MYA3626 + ATCC 90028). The experiment in a line: Broth microdilution MIC assay against co-culture of fungal spores. The note with it: Aspergillus fumigatus + Candida albicans co-culture; repeated MIC study (Table 4), agent alone; listed as Itraconazone. On the procedure: Broth Microdilution Minimal Inhibitory Concentration (MIC) assays were performed to obtain the MIC values for Itraconazole and Ketoconazole with an antibiotic (Vancomycin or Tobramycin or Amikacin) against the two fungal strains.
The strains were maintained as a frozen glycerol stocks at −80° C. The fungal strains were prepared by thawing a glycerol stock, streaking and growing onto Sabouraud's Dextrose Agar (SDA) plates, overnight at 35±2° C. in aerobic conditions and used for the assay.
Antifungal agents: Itraconazole (Cat #16657, Lot #087K1322), Ketoconazole (Cat # K1003, Lot # SLBR1290V). Stocks were prepared in appropriate solvents following the CLSI guidelines. See, for example, Reference method for broth dilution antifungal susceptibility testing of filamentous fungi, approved standard, 2nd ed. CLSI document M38-A2, vol. 28. CLSI, Wayne, Pa. (2008).
The completely synthetic medium RPMI-1640 (with glutamine, without bicarbonate, and with phenol red as a pH indicator) was buffered with 0.165 mol/L MOPS (3-[N-morpholino] propanesulfonic acid) buffer was used as the growth medium for the fungal strains. Overnight cultures of the fungal strains were grown on Difco™ Sabouraud's Dextrose Agar (SDA) plates at 35° C. To induce conidium and sporangiospore formation, the culture plates were transferred to incubator and grown for 5-7 days 30° C. or until good sporulation was obtained. […]

Experiment [2] has as its system Aspergillus fumigatus+Candida albicans co-culture. The experiment in a line: Checkerboard synergy assay, co-culture (FIG. 7, Table 4). The settings on record: combination of Aspergillus fumigatus and Candida albicans; read-out: MIC (agent alone, read from checkerboard FIG. 7). On the procedure: This study evaluated the synergistic activity of 2 antifungal agents (Itraconazole and Ketoconazole) with an antibiotic (Vancomycin or Tobramycin or Amikacin) against the spores of 2 fungi; Aspergillus fumigatus MYA3626 and Candida albicans ATCC 90028; individually as well as in co-cultivation (Aspergillus fumigatus+Candida albicans). Synergy testing was carried out as per checkerboard assay by Victor Lorian methodology. See, for example, Lorian, V. Antibiotics in Laboratory Medicine. Edition 5: (2005).
In vitro activity of the test articles were tested in combination by the Checkerboard assay. See, for example, Lorian, V. Antibiotics in Laboratory Medicine. Edition 5: (2005). The assay was carried out in duplicates. The starting concentrations for the test articles was determined as per the MIC data. Two-fold serial dilutions of 8×MIC for the antifungal agents; Itraconazole and Ketoconazole was performed separately. When Itraconazole and Ketoconazole were combined in a microtiter plate, the concentration of both agents was 2×MIC. […] The plates were incubated at 35° C. for 3-5 days. The assay plates were visually inspected to confirm the MIC endpoint and used to calculate the Fractional Inhibitory Concentration (FIC) Index to determine any synergistic interaction.
The FIC Index was calculated as follows: […]

In the next experiment the test system is Candida albicans. Briefly: Culture sensitivity, Patient 7 isolate. The settings on record: Patient 7 Candida albicans culture. The source says: (§1) The patient underwent the standard workup for CRS, sleep disorder, and nasal obstruction, plus our diagnostic skin test and sinus CT scan.
The next experiment relates to S. aureus, a bacteria. Briefly: Culture sensitivity, Patient 7 isolate. The settings on record: Patient 7 bacterial culture.
Excerpt: as §1

In the case of `CCC(C)n1ncn(-c2ccc(N3CCN(c4ccc(OCC5COC(Cn6cncn6)(c6ccc(Cl)cc6Cl)O5)cc4)CC3)cc2)c1=O` (centres unmarked) [Itraconazole], the MIC in experiment [1] was 1 µg/mL; in experiment [2], > 0.5 µg/mL. For the compound `CC(=O)N1CCN(c2ccc(OCC3COC(Cn4ccnc4)(c4ccc(Cl)cc4Cl)O3)cc2)CC1` (centres unmarked) [Ketoconazole], the minimum inhibitory concentration (MIC) in experiment [2] was > 4 µg/mL. Further, in the experiment with Candida albicans, the Culture sensitivity result is listed as “sensitive”. Take `NC[C@H]1O[C@H](O[C@H]2[C@H](O)[C@@H](O[C@H]3O[C@H](CO)[C@@H](O)[C@H](N)[C@H]3O)[C@H](N)C[C@@H]2N)[C@H](N)C[C@@H]1O` [tobramycin]: in the experiment on S. aureus, a bacteria, the Culture sensitivity entry is “sensitive”.

By MIC is commonly meant the lowest concentration that inhibits growth of the organism.
